Measurements published in PubChem BioAssay (NCI).
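Results reflect a 48-hour exposure of cells in 96-well plates to compound at five concentrations. TGI: concentration producing complete growth inhibition.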

Key:
Assay in all cases: NCI anticancer screen, dose series, 48 h
KM12 colon = tested on: KM12 colon
PC-3 prostate = tested on: PC-3 prostate
SK-MEL-28 melanoma = tested on: SK-MEL-28 melanoma
HOP-62 NSCLC = tested on: HOP-62 NSCLC
ACHN renal = tested on: ACHN renal
HOP-92 NSCLC = tested on: HOP-92 NSCLC
A549 NSCLC = tested on: A549 NSCLC
SN12C renal = tested on: SN12C renal
TK-10 renal = tested on: TK-10 renal
UACC-62 melanoma = tested on: UACC-62 melanoma

| SMILES | TGI (KM12 colon) | TGI (PC-3 prostate) | TGI (SK-MEL-28 melanoma) | TGI (HOP-62 NSCLC) | TGI (ACHN renal) | TGI (HOP-92 NSCLC) | TGI (A549 NSCLC) | TGI (SN12C renal) | TGI (TK-10 renal) | TGI (UACC-62 melanoma) |
| --- | --- | --- | --- | --- | --- | --- | --- | --- | --- | --- |
| O=C(N/N=C\c1cccs1)c1ccncc1 | > 100 µM | > 100 µM | > 100 µM | > 100 µM | > 100 µM | > 100 µM | > 100 µM | > 100 µM | > 100 µM | > 100 µM |
| CNC(=O)c1cc2nc3ccccc3c(=O)n2c2ccccc12 | > 10 µM | > 10 µM | > 10 µM | > 10 µM | > 10 µM | > 10 µM | > 10 µM | > 10 µM | > 10 µM | > 10 µM |
| COc1ccc(OC)c(NC2=NCCO2)c1 | > 100 µM | > 100 µM | > 100 µM | > 100 µM | > 100 µM | 77.4 µM | > 100 µM | > 100 µM | > 100 µM | > 100 µM |
| CC(C)NCC(O)c1ccc(O)c2ncccc12 (stereo not given) | > 100 µM | > 100 µM | > 100 µM | > 100 µM | > 100 µM | > 100 µM | > 100 µM | > 100 µM | > 100 µM | > 100 µM |
| Cc1nc(N)sc1C(=O)Nc1ncn[nH]1 | > 100 µM | > 100 µM | > 100 µM | > 100 µM | > 100 µM | > 100 µM | > 100 µM | > 100 µM | > 100 µM | > 100 µM |
| CCn1c(-c2ccc(OC)cc2)nc2c1C(=O)c1ccccc1C2=O | > 100 µM | > 100 µM | > 100 µM | > 100 µM | > 100 µM | > 100 µM | > 100 µM | > 100 µM | > 100 µM | > 100 µM |
| N#CCCN(CCC#N)c1ccc(/C=C2\SC(=S)NC2=O)cc1 | > 100 µM | > 100 µM | > 100 µM | > 100 µM | > 100 µM | > 100 µM | > 100 µM | > 100 µM | > 100 µM | > 100 µM |
| O=C(/C=C/c1ccc2c(c1)OCO2)NCCc1ccco1 | > 100 µM | > 100 µM | > 100 µM | > 100 µM | > 100 µM | > 100 µM | > 100 µM | > 100 µM | > 100 µM | > 100 µM |
| COC1=CC(=O)c2c(cc(COP(N)(=O)N(CCCl)CCCl)n2C)C1=O (stereo not given) | 5.02 µM | 10.1 µM | 8.83 µM | 7.88 µM | 1.18 µM | 6.66 µM | 4.31 µM | 1.31 µM | 5.61 µM | 2.16 µM |
| Oc1cc(Cl)cc2cc(Cl)cnc12 | > 100 µM | > 100 µM | > 100 µM | 89.9 µM | 21.3 µM | 74.1 µM | > 100 µM | > 100 µM | 76.2 µM | 7.81 µM |
| C=C1C(=O)[C@]23C[C@H]1C[C@@H](O)[C@H]2[C@]1(COC3=O)[C@@H](OC(C)=O)CC[C@@](C)(COC(C)=O)[C@H]1C=O | > 50 µM | > 50 µM | > 50 µM | > 50 µM | > 50 µM | 22.3 µM | > 50 µM | > 50 µM | > 50 µM | > 50 µM |
| Cc1ccc(S(=O)(=O)/N=C2/N(C)CCCS2(=O)=O)cc1 | > 100 µM | > 100 µM | > 100 µM | > 100 µM | > 100 µM | > 100 µM | > 100 µM | > 100 µM | > 100 µM | > 100 µM |
| COC(=O)CCCC1(CCCC(=O)OC)CCCCCCCCC(CCCC(=O)OC)(CCCC(=O)OC)C(=O)C1=O | > 100 µM | 53.5 µM | > 100 µM | > 100 µM | > 100 µM | 39 µM | 29.9 µM | > 100 µM | > 100 µM | 39.5 µM |
| C[C@@H](NC(=O)[C@@H]1C[C@]1(C)CO)c1cccc2ccccc12 | > 100 µM | > 100 µM | > 100 µM | > 100 µM | > 100 µM | > 100 µM | > 100 µM | > 100 µM | > 100 µM | > 100 µM |
